According to US20030166715A1, “Use of vitaletheine modulators in the prophylaxis and treatment of disease” (priority 1990, published 2003):

Tests used:
human BFU-E = experiment: Modulation of erythropoiesis: colony formation from human BFU-E in plasma clot culture; assay type: cell-based; conditions: 18 h initial incubation with vitalethine; compared with levels initially containing erythropoietin (FIG. 3a)
Source text: (§1) Colony formation from the early murine progenitors not exposed to vitalethine, and either initially exposed to or initially deprived of erythropoietin are represented by upper and lower triangles, respectively. […] Bars are standard error of the mean.
(§2) Human bone marrow cells were obtained as surplus from experiments performed on material aspirated from normal volunteers with IRB approval and informed written consent. Peripheral blood cells were obtained from commercially purchased buffy coats or surgical waste (umbilical cord blood). Mouse bone marrow was flushed from femurs and obtained as surplus from experiments performed on C57B1/6 mice with animal committee approval. Human light density cells were separated by centrifugation over Ficoll-daitrizoate (SG 1.075) and depleted of adherent cells by incubation on serum coated plastic. Mouse cells were used without further fractionation. […] One unit per ml of erythropoietin and medium without added factors served as positive and negative controls. Initial incubations were carried out for 18 hours at 37° . […]

[1] = test system: Cloudman S-91 murine melanoma cells; experiment: Treatment of murine Cloudman S-91 melanoma in mice, tumor volume; assay type: in vivo, mouse
Description: This regimen is predicated on the observation that certain enzymes thought to be responsive to these compounds, and which may pay a role in the reported results, are induced 48 hours after chemical stimulation. […] Data presented is calculated from measured tumor diameters, including mice with no tumor. Error bars indicate standard error of the mean.
Cloudman S-91 murine melanoma cells (American Type Culture Collection #53.1, Clone M-3) from a (C X DBA)F1 male mouse were grown in 75 ml flasks (Corning Glass Works, Corning, N.Y., USA) containing Ham's F12 medium supplemented with 15% fetal bovine serum, penicillin (100 U/ml), and streptomycin (100 μg/ml), all commercially available from Sigma Chemical Company, St. Louis, Mo., USA. Cultures were incubated at 37° C. under 5.5% carbon dioxide initially at 6×10^6 cells per ml for two days, with a medium change after one day. Cultures were then trypsinized, split into two fresh flasks at one half the cell density, above, and maintained for one week prior to injection in female (DBA X BALB c) mice (CD2F1/Hsd from Harlan Sprague Dawley, Inc., Indianapolis, Ind., USA). For inoculation, cells were first trypsinized, washed 3 times in phosphate buffered saline, and diluted to 1×10^5 cells/100 μl phosphate buffered saline prior to subcutaneous injection in the flank.
The compounds were dissolved in water, filtered through an appropriate sterilizing filter (0.22 μm non-pyrogenic, μ Star LB™ from Costar®, Cambridge, Mass., USA), diluted to the desired concentration in sterile, physiological saline (0.1 ml), and injected intraperitoneally with a 27 gauge, ⅜ inch allergy syringe (Becton Dickinson, Rutherford, N.J., USA); by gently lifting the skin on the abdomen of supine mice and injecting horizontally, puncture of peritoneal organs is avoided, thereby minimizing trauma to the mice.

CFU-E progenitors = experiment: Modulation of erythropoiesis: colony formation from CFU-E progenitors in plasma clot culture; assay type: cell-based, murine; conditions: depending upon concentration (FIG. 3a)
Source text: as §1, §2

CFU-E and BFU-E = experiment: Modulation of erythropoiesis: stimulation of colony formation synergistically with erythropoietin (FIG. 3a/3b); assay type: cell-based
Source text: as §1, §2

O=C(O)NCCC(=O)NCCSSCCNC(=O)CCNC(=O)O [vitalethine, N,N′-(dithiodi-2,1-ethanediyl)-bis-(3-carboxyamino-propan-amide)]
colony formation from human BFU-E initially deprived of erythropoietin (human BFU-E): increased | average tumor volume ([1]; 100 pg/kg mouse (FIG. 1b)): diminishes average tumor volume substantially | diminution of tumor volume compared to saline controls ([1]; 10 femtogram/kg mouse intraperitoneally three times per week, beginning second day after tumor inoculation): ~70% | average tumor volume ([1]; 10 fg/kg mouse (FIG. 1a)): diminishes average tumor volume substantially | erythropoiesis from the CFU-E progenitors (CFU-E progenitors): either enhances or minimizes erythropoiesis | concentration necessary for a similar response (stimulation of colony formation) (CFU-E and BFU-E): about 10 pg/ml
